Data reported in paper PMC8151276, “An Integrated Approach toward NanoBRET Tracers for Analysis of GPCR Ligand Engagement” (Molecules, 2021).

Key:
Assay type in all cases: binding
CNR2 = molecular target: T1, CNR2 (Homo sapiens, UniProt P34972); test: NanoBRET screen HiBiT-CNR2 in HEK293; settings: CNR2
T1 construct: purchased Promega (in-house HiBiT-GPCR construct library, NanoBRET)
Method: (§1) Each tracer candidate was screened across the entire library of HiBiT-GPCR constructs using NanoBRET as the detection modality. As depicted in Figure 4A, the specificity of interactions was evaluated through decrease in BRET due to competitive displacement of a bound tracer by excess parental compound. Each tracer was analyzed for binding to each HiBiT-GPCR fusion in the absence and in the presence of competing parental compound. Briefly, HEK293 cells were transfected with HiBiT-GPCR constructs diluted into promoterless DNA to reduce expression and maximize translocation to the cell surface. Each tracer candidate was then screened at concentrations of 1 μM and 0.1 μM across cells expressing these fusions. Cells were treated for 1.5 h with tracer either alone or in the presence of 20 μM competing parental compound (i.e., control). BRET was measured upon addition of purified LgBiT and subsequent complementation with HiBiT genetically fused to a GPCR. The specificity of interactions was assessed through a decrease in BRET signal due to competitive displacement of the bound tracer. To further gauge the robustness of these interactions, the fold response over the control (i.e., BRETtracer/BRETcontrol) was calculated. We chose a 1.5-fold response, which translates to ≥7-fold signal over noise as the minimal threshold required to score an interaction as positive.
(§2) HiBiT-GPCR DNA constructs were diluted in 10 mM Tris pH 8 to a final concentration of 0.01 μg/μL, arrayed in 96-well plates and stored at −20 °C. For transfection, HEK293 cells were suspended in Opti-MEM (without phenol red) supplemented with 2% fetal bovine serum (Seradigm) and 100 units/mL penicillin–streptomycin (Gibco) at a final concentration of 220,000 cells/mL and dispensed into white 96-well plates at 90 μL/well. Subsequent transfections and screens were carried using an Agilent Bravo Automated Liquid Handling Platform. First, the 96-well HiBiT DNA arrays were diluted 25-fold in Opti-MEM (without serum or phenol red) to a final concentration of 0.0004 μg/μL and 20 μL of the diluted DNAs were transferred into new 96-well plates. Next, promoterless carrier DNA (1 μg/μL) was diluted 25-fold (0.04 μg/μL) and then dispensed into the diluted arrays at 20 μL/well. Following brief mixing, Viafect transfection reagent (Promega) diluted 16-fold into Opti-MEM was dispensed into the plates at 40 μL/well. After mixing by pipetting, plates were incubated for 10 min on the pipetting station deck. The DNA-transfection reagent complexes were then added to plates containing cells. To facilitate the screen, 10 μL of DNA-transfection reagent complexes were added in duplicates to the top 4 and bottom 4 rows, resulting in two identical 48-well arrays per plate. Plates with transfected cells were incubated for 18–20 h at 37 °C/5% CO2. A screen of each tracer across the entire library using two different concentrations requires duplicate plates of transfected cells. Depending on the number of tracers being screened, transfections can be scaled up using the same ratios. The next day, for each tracer, four 20× screening solutions in tracer dilution buffer (Promega) were prepared: two duplicates at final concentration of 20 μM and two duplicates at a final concentration of 2 μM. […] The four resulting solutions were diluted 4-fold in Opti-MEM without serum or phenol red to generate 5× solutions (5 µM and 0.5 µM tracer +/− 100 μM competing compound). To screen the library, a BioTek MultiFlo FX liquid dispenser was used to dispense 22.5 µL of tracer solution to the top 4 rows and 22.5 µL tracer + competing compound solution to the 4 bottom rows. Plates were briefly mixed on an orbital shaker and incubated for 1.5 h at room temperature. […] Plates were briefly mixed on an orbital shaker and incubated for 15 min to allow complementation.

HTR1F = molecular target: T2, HTR1F (Homo sapiens, UniProt P30939); test: NanoBRET screen HiBiT-HTR1F in HEK293
T2 construct: purchased Promega (in-house HiBiT-GPCR construct library, NanoBRET)
T2 sequence (P30939 1-366): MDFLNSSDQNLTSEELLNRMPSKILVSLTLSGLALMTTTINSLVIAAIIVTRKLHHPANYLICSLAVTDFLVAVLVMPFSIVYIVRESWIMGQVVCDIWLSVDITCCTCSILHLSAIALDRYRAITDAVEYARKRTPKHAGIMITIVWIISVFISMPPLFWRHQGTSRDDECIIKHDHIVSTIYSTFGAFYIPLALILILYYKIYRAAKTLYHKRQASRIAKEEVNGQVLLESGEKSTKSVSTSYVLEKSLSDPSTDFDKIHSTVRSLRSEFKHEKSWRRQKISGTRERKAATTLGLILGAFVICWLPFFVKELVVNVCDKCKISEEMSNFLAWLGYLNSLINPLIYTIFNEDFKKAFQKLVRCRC
Method: as §1, §2

DRD1 = molecular target: T3, DRD1 (Homo sapiens, UniProt P21728); test: NanoBRET screen HiBiT-DRD1 in HEK293
T3 construct: purchased Promega (in-house HiBiT-GPCR construct library, NanoBRET)
Method: as §1, §2

ADRA1A = molecular target: T4, ADRA1A (Homo sapiens, UniProt P35348); test: NanoBRET screen HiBiT-ADRA1A in HEK293
T4 construct: purchased Promega (in-house HiBiT-GPCR construct library, NanoBRET)
T4 sequence (P35348 1-466): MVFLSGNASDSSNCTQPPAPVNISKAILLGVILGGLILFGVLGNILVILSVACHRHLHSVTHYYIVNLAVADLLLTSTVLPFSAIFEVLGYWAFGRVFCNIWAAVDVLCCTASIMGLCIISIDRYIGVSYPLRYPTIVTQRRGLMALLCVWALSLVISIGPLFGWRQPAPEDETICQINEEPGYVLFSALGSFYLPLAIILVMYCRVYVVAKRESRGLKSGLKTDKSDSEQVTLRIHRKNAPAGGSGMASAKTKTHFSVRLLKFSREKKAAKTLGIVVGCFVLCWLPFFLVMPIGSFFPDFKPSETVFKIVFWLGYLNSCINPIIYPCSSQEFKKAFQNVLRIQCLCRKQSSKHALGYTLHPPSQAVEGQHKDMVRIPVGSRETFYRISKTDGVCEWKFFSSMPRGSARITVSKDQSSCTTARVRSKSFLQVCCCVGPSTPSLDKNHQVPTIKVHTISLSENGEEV
Method: as §1, §2

[1] = tracer at 0.1μM, listed as amitriptyline-b-2-NB590
[2] = tracer at 1μM, listed as amitriptyline-b-2-NB590

T1 sequence (P34972 whole entry): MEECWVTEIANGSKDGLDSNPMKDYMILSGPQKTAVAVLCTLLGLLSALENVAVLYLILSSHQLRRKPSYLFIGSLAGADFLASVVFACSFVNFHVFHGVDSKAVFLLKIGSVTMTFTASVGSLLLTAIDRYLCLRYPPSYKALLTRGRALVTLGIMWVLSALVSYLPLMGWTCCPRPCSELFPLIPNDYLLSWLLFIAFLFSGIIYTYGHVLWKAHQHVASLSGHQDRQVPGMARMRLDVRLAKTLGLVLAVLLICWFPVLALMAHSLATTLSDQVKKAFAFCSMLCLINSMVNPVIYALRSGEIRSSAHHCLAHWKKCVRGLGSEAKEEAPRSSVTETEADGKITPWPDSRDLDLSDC
T3 sequence (P21728 whole entry): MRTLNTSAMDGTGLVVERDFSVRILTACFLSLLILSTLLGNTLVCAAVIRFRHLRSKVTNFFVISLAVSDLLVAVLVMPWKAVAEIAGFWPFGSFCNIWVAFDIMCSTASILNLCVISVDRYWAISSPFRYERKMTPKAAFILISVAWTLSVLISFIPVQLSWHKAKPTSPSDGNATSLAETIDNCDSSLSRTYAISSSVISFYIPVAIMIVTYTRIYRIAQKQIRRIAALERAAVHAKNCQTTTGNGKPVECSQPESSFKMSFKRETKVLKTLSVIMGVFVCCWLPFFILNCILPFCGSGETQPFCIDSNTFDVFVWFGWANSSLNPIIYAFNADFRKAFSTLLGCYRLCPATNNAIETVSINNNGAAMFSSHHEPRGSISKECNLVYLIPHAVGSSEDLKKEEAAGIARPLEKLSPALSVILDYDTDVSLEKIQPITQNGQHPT

## CN1CCN(C2=Nc3cc(Cl)ccc3Nc3ccc(CNC(=O)CCOCCOCCOCCOCCNC(=O)CCc4ccc5n4[B-](F)(F)[N+]4=C(c6ccc[nH]6)C=CC4=C5)cc32)CC1 [Clozapine-b-2-NB590]
CNR2; 0.1μM tracer
  NanoBRET Fold Response: 1.05
HTR1F; HTR1F, 0.1μM tracer
  NanoBRET Fold Response: 1.00
HTR1F; HTR1F, 1μM tracer
  NanoBRET Fold Response: 1.28

## CN(C)CCC=C1c2ccccc2CCc2ccc(C(=O)NCCNC(=O)CCOCCOCCOCCOCCNC(=O)CCc3ccc4n3[B-](F)(F)[N+]3=C(c5ccc[nH]5)C=CC3=C4)cc21 [Amitriptyline-b-2-NB590]
DRD1; [1]
  NanoBRET Fold Response: 1.39
DRD1; [2]
  NanoBRET Fold Response: 1.97
ADRA1A; [1]
  NanoBRET Fold Response: 4.73
ADRA1A; [2]
  NanoBRET Fold Response: 2.23
CNR2; tracer 0.1μM
  NanoBRET Fold Response: 0.96
CNR2; tracer 1μM
  NanoBRET Fold Response: 1.05
HTR1F; [1]
  NanoBRET Fold Response: 1.43

## CN1CCN(C2=Nc3cc(Cl)ccc3N(CC(=O)NCCOCCOCCOCCOCCNC(=O)CCc3ccc4n3[B-](F)(F)[N+]3=C(c5ccc[nH]5)C=CC3=C4)c3ccccc32)CC1 [Clozapine-c-2-NB590]
CNR2; 0.1μM tracer
  NanoBRET Fold Response: 0.96
CNR2; 1μM tracer
  NanoBRET Fold Response: 1.13
HTR1F; HTR1F, 0.1μM tracer
  NanoBRET Fold Response: 1.02
HTR1F; HTR1F, 1μM tracer
  NanoBRET Fold Response: 0.91

## CN(C)CCC=C1c2ccccc2CCc2ccc(C(=O)NCCNC(=O)CCOCCOCCOCCOCCNC(=O)CCc3ccc4n3[B-](F)(F)[N+]3=C(c5ccc[nH]5)C=CC3=C4)cc21 [Amitriptyline-a-2-NB590]
DRD1; tracer at 0.1μM
  NanoBRET Fold Response: 1.04
DRD1; tracer at 1μM
  NanoBRET Fold Response: 1.23
ADRA1A; tracer at 0.1μM
  NanoBRET Fold Response: 1.38
ADRA1A; tracer at 1μM
  NanoBRET Fold Response: 2.14
HTR1F; tracer at 0.1μM
  NanoBRET Fold Response: 0.97
HTR1F; tracer at 1μM
  NanoBRET Fold Response: 1.02

## Cc1nc2n(c(=O)c1CCN1CCC(c3noc4cc(F)ccc34)CC1)CCCC2OC(=O)NCCOCCOCCOCCOCCNC(=O)CCc1ccc2n1[B-](F)(F)[N+]1=C(c3ccc[nH]3)C=CC1=C2 (stereo not shown) [Risperidone-2-NB590]
DRD1; DRD1, tracer 0.1μM
  NanoBRET Fold Response: 2.20
DRD1; DRD1, tracer 1μM
  NanoBRET Fold Response: 2.38
ADRA1A; ADRA1A, tracer 0.1μM
  NanoBRET Fold Response: 4.86
ADRA1A; ADRA1A, tracer 1μM
  NanoBRET Fold Response: 3.45
CNR2; tracer 0.1μM
  NanoBRET Fold Response: 1.04
CNR2; tracer 1μM
  NanoBRET Fold Response: 1.12
HTR1F; HTR1F, tracer 0.1μM
  NanoBRET Fold Response: 0.98
HTR1F; HTR1F, tracer 1μM
  NanoBRET Fold Response: 1.07
